Results published in PubChem BioAssay AID1963984 (Molecular Pharmacology Branch, DTP, NCI, 2024).

System: 233499-124-R-J3-PDC spheroids with HUVEC/MSC, viability
Test: Anticancer human tumor 233499-124-R-J3-PDC patient-derived colon adenocarcinoma cell line growth inhibition [PI3K]
Details: for IC50: curve of first compound; for viability, T/C: stronger effect = lower value
From the text: Combinatorial screen of targeted agents with the PI3K inhibitors inavolisib, alpelisib, duvelisib, and copanlisib in multi-cell type tumor spheroids
A high-throughput screen of multi-cell type tumor spheroids was designed to identify active combinations of targeted small molecules and PI3K pathway inhibitors. Complex spheroids include a stromal component modeled by human endothelial cells (HUVEC) and fibroblasts modeled by human mesenchymal stem cells (MSCs). The concentration ranges selected for each drug and investigational agent were based upon clinically achievable concentrations if the clinical Cmax of the agent was known.
Compounds. The drugs and investigational agents: inavolisib (NSC800729), alpelisib (NSC765974), duvelisib (NSC772469), copanlisib (NSC816437), ipatasertib (NSC767898), afuresertib (NSC778305), talazoparib (NSC767125), sapanisertib (NSC764658), selumetinib (NSC741078), tovorafenib (DAY101, NSC766906), vemurafenib (NSC761431), ravoxertinib (NSC781343), sotorasib (NSC818433), MRTX1133 (NSC 836407), abemaciclib (NSC 768073), palbociclib (NSC758247), venetoclax (NSC 766270), SY5609 (NSC837396), enzalutamide (NSC755605), and darolutamide (NSC825331), were obtained from the National Cancer Institute (NCI) Developmental Therapeutics Program Chemical Repository. The FDA-approved anticancer drug set is available from the NCI Developmental Therapeutics Program. […] The stock solutions were prepared in dimethyl sulfoxide (DMSO, Sigma-Aldrich, St. Louis, MO, cat. D2650) at 800-fold the tested concentration and stored at -70 degrees C prior to their use. All drugs and investigational agents were tested over a range starting from a high concentration at or near the clinical Cmax and decreasing in half-log increments. If the clinical Cmax for an agent had not been determined, the highest concentration tested was 10 microM.
Cell Culture. All cells were maintained in an incubator at 37 degrees C and 5% CO2 with 95% humidity. The PDC lines were cultured according to standard operating procedures established by the NCI PDMR (https://pdmr.cancer.gov/sops/default.htm). All PDCs were thawed and cultured in Matrigel-coated flasks prepared with a working solution of 1X Ham's F-12 nutrient mix, without supplementation (Invitrogen, Waltham, MA, cat. 11765054), 100 U/mL penicillin-streptomycin (Invitrogen, cat. 15140122), and 2.5% Matrigel (Corning Inc., Corning, NY, cat. 354248) for the first three passages. The 354836-022-R-J1-PDC, 475296-252-R-J1-PDC, and 997726-040-R-J2-PDC lines were cultured in 6A media, which includes advanced DMEM/F-12 (Thermo Fisher Scientific, cat. 12634028), 10 mM HEPES (Thermo Fisher Scientific, cat. 15630080), 1X GlutaMAX supplement (Thermo Fisher Scientific, cat. 35050061), 0.1 mg/mL primocin (InvivoGen, San Diego, CA, cat. ant-pm-2), 10% defined fetal bovine serum, heat inactivated (HyClone Laboratories Inc., Logan, UT, cat. SH30070.03HI), 50% L-WRN conditioned media (ATCC, cat. CRL-3276), 1.25 mM N-Acetyl-L-cysteine (Sigma-Aldrich, cat. A9165), 10 mM nicotinamide (Sigma-Aldrich, cat. N0636), 1X B-27 supplement (Thermo Fisher Scientific, cat. 17504044), 1X N-2 supplement (Thermo Fisher Scientific, cat. 17502048), and 10 microM Y-27632 dihydrochloride (Tocris Bioscience, Bristol, United Kingdom, cat. 1254). The 624824-186-R-J2-PDC line was cultured in 6C/Colon 1B media, which includes all 6A media components plus 50 ng/mL human EGF recombinant protein (Thermo Fisher Scientific, cat. PHG0311). […]

[1] = second compound 0.00316 µM, first compound 0.0316 µM
[2] = second compound 0.00316 µM, first compound 0.1 µM
[3] = second compound 0.00316 µM, first compound 0.316 µM
[4] = second compound 0.00316 µM, first compound 1 µM
[5] = second compound 0.00316 µM, first compound 3.16 µM
[6] = second compound 0.00316 µM, first compound 10 µM
[7] = second compound 0.01 µM, first compound 0.0316 µM
[8] = second compound 0.01 µM, first compound 0.1 µM
[9] = second compound 0.01 µM, first compound 0.316 µM
[10] = second compound 0.01 µM, first compound 1 µM
[11] = second compound 0.01 µM, first compound 3.16 µM
[12] = second compound 0.01 µM, first compound 10 µM
[13] = second compound 0.0316 µM, first compound 0.0316 µM
[14] = second compound 0.0316 µM, first compound 0.1 µM
[15] = second compound 0.0316 µM, first compound 0.316 µM
[16] = second compound 0.0316 µM, first compound 1 µM
[17] = second compound 0.0316 µM, first compound 3.16 µM
[18] = second compound 0.0316 µM, first compound 10 µM
[19] = second compound 0.1 µM, first compound 0.0316 µM
[20] = second compound 0.1 µM, first compound 0.1 µM
[21] = second compound 0.1 µM, first compound 0.316 µM
[22] = second compound 0.1 µM, first compound 1 µM
[23] = second compound 0.1 µM, first compound 3.16 µM
[24] = second compound 0.1 µM, first compound 10 µM
[25] = second compound 0.316 µM, first compound 0.0316 µM
[26] = second compound 0.316 µM, first compound 0.1 µM
[27] = second compound 0.316 µM, first compound 0.316 µM
[28] = second compound 0.316 µM, first compound 1 µM
[29] = second compound 0.316 µM, first compound 3.16 µM
[30] = second compound 0.316 µM, first compound 10 µM
[31] = second compound 1 µM, first compound 0.0316 µM
[32] = second compound 1 µM, first compound 0.1 µM
[33] = second compound 1 µM, first compound 0.316 µM
[34] = second compound 1 µM, first compound 1 µM
[35] = second compound 1 µM, first compound 3.16 µM
[36] = second compound 1 µM, first compound 10 µM
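Further: spheroids exposed to agents for seven days before readout.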
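Wherever viability, T/C is given: percent viability relative to DMSO vehicle control taken as 100%.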

CC(C)NCC(C(=O)N1CCN(c2ncnc3c2C(C)CC3O)CC1)c1ccc(Cl)cc1 (stereo unspecified) + CC(Nc1ccc2c(c1)OCCn1cc(N3C(=O)OCC3C(F)F)nc1-2)C(N)=O
IC50 (second compound 0.00316 µM): > 10 µM | IC50 (second compound 0.01 µM): > 10 µM | IC50 (second compound 0.0316 µM): > 10 µM | IC50 (second compound 0.1 µM): > 10 µM | IC50 (second compound 0.316 µM): > 10 µM | IC50 (second compound 1 µM): 7.25 µM | viability, T/C [1]: 53.2% | viability, T/C [2]: 98.8% | viability, T/C [3]: 74.7% | viability, T/C [4]: 96% | viability, T/C [5]: 94.2% | viability, T/C [6]: 50.3% | viability, T/C [7]: 96.7% | viability, T/C [8]: 102% | viability, T/C [9]: 94.8% | viability, T/C [10]: 96.2% | viability, T/C [11]: 86.1% | viability, T/C [12]: 71.1% | viability, T/C [13]: 89% | viability, T/C [14]: 84.9% | viability, T/C [15]: 89% | viability, T/C [16]: 86.1% | viability, T/C [17]: 81.2% | viability, T/C [18]: 76.8% | viability, T/C [19]: 87.7% | viability, T/C [20]: 86.2% | viability, T/C [21]: 77.3% | viability, T/C [22]: 51.9% | viability, T/C [23]: 80.8% | viability, T/C [24]: 58.6% | viability, T/C [25]: 72.2% | viability, T/C [26]: 83.2% | viability, T/C [27]: 69.7% | viability, T/C [28]: 67.5% | viability, T/C [29]: 59.9% | viability, T/C [30]: 79.5% | viability, T/C [31]: 49.2% | viability, T/C [32]: 40.3% | viability, T/C [33]: 65.2% | viability, T/C [34]: 68.7% | viability, T/C [35]: 50.9% | viability, T/C [36]: 36.4%

CCN1CCN(Cc2ccc(Nc3ncc(F)c(-c4cc(F)c5nc(C)n(C(C)C)c5c4)n3)nc2)CC1 + CC(Nc1ccc2c(c1)OCCn1cc(N3C(=O)OCC3C(F)F)nc1-2)C(N)=O
IC50 (second compound 0.00316 µM): > 1 µM | IC50 (second compound 0.01 µM): 0.672 µM | IC50 (second compound 0.0316 µM): 0.528 µM | IC50 (second compound 0.1 µM): 0.236 µM | IC50 (second compound 0.316 µM): 0.0869 µM | IC50 (second compound 1 µM): 0.00439 µM | viability, T/C (second compound 0.00316 µM, first compound 0.00316 µM): 68.8% | viability, T/C (second compound 0.00316 µM, first compound 0.01 µM): 98.9% | viability, T/C [1]: 94% | viability, T/C [2]: 73.7% | viability, T/C [3]: 59.5% | viability, T/C [4]: 49.7% | viability, T/C (second compound 0.01 µM, first compound 0.00316 µM): 106% | viability, T/C (second compound 0.01 µM, first compound 0.01 µM): 95.8% | viability, T/C [7]: 89.7% | viability, T/C [8]: 85.4% | viability, T/C [9]: 79.9% | viability, T/C [10]: 35.7% | viability, T/C (second compound 0.0316 µM, first compound 0.00316 µM): 90.2% | viability, T/C (second compound 0.0316 µM, first compound 0.01 µM): 85.2% | viability, T/C [13]: 82% | viability, T/C [14]: 91.6% | viability, T/C [15]: 58.5% | viability, T/C [16]: 39.3% | viability, T/C (second compound 0.1 µM, first compound 0.00316 µM): 87.8% | viability, T/C (second compound 0.1 µM, first compound 0.01 µM): 90.8% | viability, T/C [19]: 73.8% | viability, T/C [20]: 79% | viability, T/C [21]: 39.4% | viability, T/C [22]: 40.8% | viability, T/C (second compound 0.316 µM, first compound 0.00316 µM): 73.2% | viability, T/C (second compound 0.316 µM, first compound 0.01 µM): 72.7% | viability, T/C [25]: 63% | viability, T/C [26]: 51.1% | viability, T/C [27]: 31.2% | viability, T/C [28]: 44.5% | viability, T/C (second compound 1 µM, first compound 0.00316 µM): 55.3% | viability, T/C (second compound 1 µM, first compound 0.01 µM): 45.2% | viability, T/C [31]: 32.2% | viability, T/C [32]: 48.9% | viability, T/C [33]: 42.6% | viability, T/C [34]: 27.8%

Cn1ncc(Cl)c1-c1cc(C(=O)NC(CN)Cc2cccc(F)c2)sc1Cl (stereo unspecified) + CC(Nc1ccc2c(c1)OCCn1cc(N3C(=O)OCC3C(F)F)nc1-2)C(N)=O
IC50 (second compound 0.00316 µM): 4.46 µM | IC50 (second compound 0.01 µM): 3.79 µM | IC50 (second compound 0.0316 µM): 2.73 µM | IC50 (second compound 0.1 µM): 3.19 µM | IC50 (second compound 0.316 µM): 1.8 µM | IC50 (second compound 1 µM): 1.73 µM | viability, T/C [1]: 73.9% | viability, T/C [2]: 93% | viability, T/C [3]: 93.9% | viability, T/C [4]: 99.9% | viability, T/C [5]: 58.4% | viability, T/C [6]: 30.5% | viability, T/C [7]: 86.1% | viability, T/C [8]: 81.8% | viability, T/C [9]: 81.5% | viability, T/C [10]: 80.8% | viability, T/C [11]: 53.3% | viability, T/C [12]: 32.1% | viability, T/C [13]: 111% | viability, T/C [14]: 82.9% | viability, T/C [15]: 80.3% | viability, T/C [16]: 77.8% | viability, T/C [17]: 43.8% | viability, T/C [18]: 21.4% | viability, T/C [19]: 97.4% | viability, T/C [20]: 94.3% | viability, T/C [21]: 65.6% | viability, T/C [22]: 67% | viability, T/C [23]: 62.3% | viability, T/C [24]: 16.6% | viability, T/C [25]: 79% | viability, T/C [26]: 94.3% | viability, T/C [27]: 61.5% | viability, T/C [28]: 55.2% | viability, T/C [29]: 46.9% | viability, T/C [30]: 19.8% | viability, T/C [31]: 42.6% | viability, T/C [32]: 61.8% | viability, T/C [33]: 67.2% | viability, T/C [34]: 56% | viability, T/C [35]: 42.9% | viability, T/C [36]: 14.3%
